What was measured:
[1] = tested on: spontaneous hypertensive rats (systolic pressure of the caudal artery); test: Antihypertensive activity per os in spontaneous hypertensive rats; assay type: in vivo, rat; settings: 3 mg/kg p.o., percentage of the decrease of the systolic pressure
Experimental: The antihypertensive activity was determined by administering spontaneous hypertensive rats with the compounds of the invention, by oral route, as a suspension in carboxymethylcellulose containing 0.5% of physiologic solution. […] The obtained results are reported in Table 2, and are expressed as the percentage of the decrease of the sistolic pressure after treatment.

in vivo = settings: mouse, mice of both sexes, oral, day 14 of observation
Experimental: The acute toxicity was determined on mice of both sexes upon oral administration of the compounds to be tested as a suspension in carboxymethylcellulose containing 0.5% of physiologic solution, and it was expressed as an LD50 value at day 14 of observation.

Structure (SMILES) | Pressure variations (pressure time 0 - less pressure after administration), 15 min. [1] | Pressure variations (pressure time 0 - less pressure after administration), 1 h [1] | Pressure variations (pressure time 0 - less pressure after administration), 3 h [1] | Pressure variations (pressure time 0 - less pressure after administration), 5 h [1] | LD50 at 336 h (in vivo)
CCOC(=O)C1=C(C)NC(C)=C(C(=O)OCCN2CCc3ccccc3C2)C1c1cccc([N+](=O)[O-])c1 (stereo not drawn) [I, R = C2 H5] | 43 ± 10.2% | 31 ± 7.1% | 22 ± 9.4% | 11 ± 6.9% | 1000 mg/kg
COC(=O)C1=C(C)NC(C)=C(C(=O)OCCN2CCc3ccccc3C2)C1c1cccc([N+](=O)[O-])c1.Cl (stereo not drawn) [I, R = CH3, 2-(1,2,3,4-Tetrahydro-isoquinoline-2-yl)ethyl 1,4-dihydro-2,6-dimethyl-4-(3-nitrophenyl)-5-methoxycarbonyl-pyridine-3-carboxylate, mono-hydrochloride] | 54 ± 6.4% | 86 ± 7.3% | 73 ± 12.8% | 49 ± 8.7% | 1000 mg/kg
COC(=O)C1=C(C)NC(C)=C(C(=O)OC)C1c1ccccc1[N+](=O)[O-] [Nifedipine, reference compound] | 41 ± 5.4% | 23 ± 6.1% | 12 ± 4.3% | 9 ± 5.6% | –
COC(=O)C1=C(C)NC(C)=C(C(=O)OCCN(C)Cc2ccccc2)C1c1cccc([N+](=O)[O-])c1 (stereo not drawn) [Nicardipine, reference compound] | 49 ± 11.3% | 52 ± 9.7% | 36 ± 6.2% | 21 ± 5.8% | 350 mg/kg
CC1=C(C(=O)OCCN2CCc3ccccc3C2)C(c2cccc([N+](=O)[O-])c2)C(C(=O)OC(C)C)=C(C)N1 (stereo not drawn) [I, R = CH(CH3)2] | 39 ± 7.6% | 38 ± 6.9% | 18 ± 6.1% | 2 ± 3.1% | 1000 mg/kg

Source: US4769374A, “Tetrahydroisoquinoline ethyl esters of 1,4-dihydropyridines and antihypertensive compositions” (Poli Industria Chimica S.p.A., priority 1984, dated 1988)
